How the values were obtained:
[1] = test system: RSV (RSV A2 ECACC, 0709161v); assay: RSV plaque reduction assay; format: cell-based, respiratory syncytial virus; details: human respiratory syncytial virus, HepG2, read-out: RSV A2 Plaque EC50, RSV A2 in Hep-G2 cells; mean of at least two experiments unless noted (n = 1)
Experimental: Compounds w ere subjected to RSV plaque reduction assays according to the following protocol.
Hep-G2 cells (ECACC, 85011430) were passaged in flasks and seeded in 24-well plates in DMEM containing antibiotics and supplemented with 10% FBS. During inoculation and subsequent incubation, cells were cultured in DMEM containing 2% FBS. 100 plaque forming unit/well of RSV (RSV A2 ECACC, 0709161v) was mixed with eight serial dilutions of compound. Subsequently, 100 μL of the virus/compound mixtures was added to confluent Hep-G2 cell monolayers. The cells and virus/compound mixtures were incubated at 37° C. in a humidified 5% CO2 incubator for 2 h prior to removal of the inoculum and addition of 1 mL of overlay (DMEM containing 2% FBS and 0.8% CMC) containing compound dilutions. The cells and were incubated at 37° C. in a humidified 5% CO2 incubator for 2 days.
Cells were washed with PBS before adding 75/25% v/v EtOH MeOH, for 3 min. Fixative was removed and plates were washed with PBS. A pre-titrated amount of the primary antibody was added in 200 μL PBS/2% milk powder, and plates incubated for 90 min at 37° C. The plates were washed 3 times with PBS/0.05% Tween20 before addition of rabbit anti-goat horse radish peroxidase in 200 μL PBS/2% milk powder, and incubated for 1 h at 37° C. Following three wash steps with PBS/0.05% Tween20, 200 μL ready-to-use TrueBlue was added and plates were incubated at rt for 10-15 min before washing with water. After removal of water, plates were air-dried in the dark.
Plates were scanned and analysed using the Immunospot S6 Macro analyser, which is equipped with BioSpot analysis software for counting immunostained plaques (virospots). Plaque counts were used to calculate % infection relative to the mean of the plaque count in the virus control wells for RSV. […] Unless otherwise noted, plaque EC50 and cell toxicity CC50 values are a mean of at least two experiments and figures are rounded to whole units.

cell toxicity CC50 = format: cell-based; details: human; Hep-G2 cells; mean of at least two experiments; read-out: Cell Cytotoxicity CC50

O=C(N[C@H]1N=C(c2ccccc2)c2ccccc2NC1=O)c1c(-c2cnn(CC(F)(F)F)c2)nn2c1OCCC2 [Example 151, N-[(3S)-2-oxo-5-phenyl-1,3-dihydro-1,4-benzodiazepin-3-yl]-2-[1-(2,2,2-trifluoroethyl)pyrazol-4-yl]-6,7-dihydro-5H-pyrazolo[5,1-b][1,3]oxazine-3-carboxamide]
EC50 [1]: 108 nM
CC50 (cell toxicity CC50): > 25000 nM

O=C(N[C@H]1N=C(c2ccccc2)c2cccc(F)c2NC1=O)c1c(-c2ccccc2F)nn2c1OC1(CC2)CC1 [Example 7, N-[(3S)-9-fluoro-2-oxo-5-phenyl-1,3-dihydro-1,4-benzodiazepin-3-yl]-2-(2-fluorophenyl)spiro[6,7-dihydropyrazolo[5,1-b][1,3]oxazine-5,1′-cyclopropane]-3-carboxamide]
EC50 [1]: 32 nM
CC50 (cell toxicity CC50): > 25000 nM

CC1(Cn2cc(-c3nn4c(c3C(=O)N[C@H]3N=C(c5ccccc5)c5cccc(F)c5NC3=O)OCCC4)cn2)COC1 [Example 104, N-[(3S)-9-fluoro-2-oxo-5-phenyl-1,3-dihydro-1,4-benzodiazepin-3-yl]-2-[1-[(3-methyloxetan-3-yl)methyl]pyrazol-4-yl]-6,7-dihydro-5H-pyrazolo[5,1-b][1,3]oxazine-3-carboxamide]
EC50 [1]: 128 nM
CC50 (cell toxicity CC50): > 25000 nM

O=C(N[C@H]1N=C(c2ccccc2)c2ccccc2NC1=O)c1c(-c2ccc(F)cc2F)nn2c1OCCC2 [Example 1, 2-(2,4-Difluorophenyl)-N-[(3S)-2-oxo-5-phenyl-1,3-dihydro-1,4-benzodiazepin-3-yl]-6,7-dihydro-5H-pyrazolo[5,1-b][1,3]oxazine-3-carboxamide]
EC50 [1]: 33 nM
CC50 (cell toxicity CC50): > 25000 nM

CCCC1COc2c(C(=O)N[C@H]3N=C(c4ccccc4)c4cccc(F)c4NC3=O)c(-c3ccccc3F)nn2C1 (stereo partly drawn) [Example 14, N-[(3S)-9-fluoro-2-oxo-5-phenyl-2,3-dihydro-1H-1,4-benzodiazepin-3-yl]-2-(2-fluorophenyl)-6-propyl-5H,6H,7H-pyrazolo[3,2-b][1,3]oxazine-3-carboxamide]
EC50 [1]: 36 nM
CC50 (cell toxicity CC50): > 25000 nM

Cc1c(-c2nn3c(c2C(=O)N[C@H]2N=C(c4ccccc4)c4cccc(F)c4NC2=O)O[C@H](C)CC3)cnn1C [Example 121, (5R)-2-(1,5-Dimethylpyrazol-4-yl)-N-[(3S)-9-fluoro-2-oxo-5-phenyl-1,3-dihydro-1,4-benzodiazepin-3-yl]-5-methyl-6,7-dihydro-5H-pyrazolo[5,1-b][1,3]oxazine-3-carboxamide]
EC50 [1]: 374 nM
CC50 (cell toxicity CC50): > 25000 nM

COc1cc(-c2nn3c(c2C(=O)N[C@H]2N=C(c4ccccc4)c4cccc(F)c4NC2=O)O[C@H](C)CC3)ccn1 [Example 48, (5R)-2-(2-Methoxypyridin-4-yl)-5-methyl-N-[(3S)-9-fluoro-2-oxo-5-phenyl-1,3-dihydro-1,4-benzodiazepin-3-yl]-6,7-dihydro-5H-pyrazolo[5,1-b][1,3]oxazine-3-carboxamide]
EC50 [1]: 246 nM
CC50 (cell toxicity CC50): > 25000 nM

CN(C)CC1COc2c(C(=O)N[C@H]3N=C(c4ccccc4)c4cccc(F)c4NC3=O)c(-c3ccccc3F)nn2C1 (mixture of isomers) [Example 171, 6-[(Dimethylamino)methyl]-N-[(3S)-9-fluoro-2-oxo-5-phenyl-1,3-dihydro-1,4-benzodiazepin-3-yl]-2-(2-fluorophenyl)-6,7-dihydro-5H-pyrazolo[5,1-b][1,3]oxazine-3-carboxamide]
EC50 [1]: 59 nM
CC50 (cell toxicity CC50): > 25000 nM

C[C@@H]1CCn2nc(-c3cc(S(C)(=O)=O)ccc3F)c(C(=O)N[C@H]3N=C(c4ccccc4)c4cccc(F)c4NC3=O)c2O1 [Example 198, (5R)-2-(2-Fluoro-5-methylsulfonylphenyl)-N-[(3S)-9-fluoro-2-oxo-5-phenyl-1,3-dihydro-1,4-benzodiazepin-3-yl]-5-methyl-6,7-dihydro-5H-pyrazolo[5,1-b][1,3]oxazine-3-carboxamide]
EC50 [1]: 35 nM
CC50 (cell toxicity CC50): > 25000 nM

O=C(N[C@H]1N=C(c2ccccc2)c2cccc(F)c2NC1=O)c1c(-c2ccc(NC3CC3)nc2F)nn2c1OCCC2 [Example 39, 2-[6-(Cyclopropylamino)-2-fluoropyridin-3-yl]-N-[(3S)-9-fluoro-2-oxo-5-phenyl-1,3-dihydro-1,4-benzodiazepin-3-yl]-6,7-dihydro-5H-pyrazolo[5,1-b][1,3]oxazine-3-carboxamide]
EC50 [1]: 40 nM
CC50 (cell toxicity CC50): > 25000 nM

C[C@@H]1CCn2nc(-c3ccsc3)c(C(=O)N[C@H]3N=C(c4ccccc4)c4cccc(F)c4NC3=O)c2O1 [Example 63, (5R)-N-[(3S)-9-fluoro-2-oxo-5-phenyl-1,3-dihydro-1,4-benzodiazepin-3-yl]-5-methyl-2-(3-thienyl)-6,7-dihydro-5H-pyrazolo[5,1-b][1,3]oxazine-3-carboxamide]
EC50 [1]: 94 nM
CC50 (cell toxicity CC50): > 25000 nM

C[C@@H]1CCn2nc(-c3ccoc3)c(C(=O)N[C@H]3N=C(c4ccccc4)c4cccc(F)c4NC3=O)c2O1 [Example 61, (5R)-N-[(3S)-9-fluoro-2-oxo-5-phenyl-1,3-dihydro-1,4-benzodiazepin-3-yl]-2-(3-furyl)-5-methyl-6,7-dihydro-5H-pyrazolo[5,1-b][1,3]oxazine-3-carboxamide]
EC50 [1]: 161 nM
CC50 (cell toxicity CC50): > 25000 nM

C[C@@H]1CCn2nc(Nc3ccccc3)c(C(=O)N[C@H]3N=C(c4ccccc4)c4ccccc4NC3=O)c2O1 [Example 96, (5R)-2-Anilino-5-methyl-N-[(3S)-2-oxo-5-phenyl-1,3-dihydro-1,4-benzodiazepin-3-yl]-6,7-dihydro-5H-pyrazolo[5,1-b][1,3]oxazine-3-carboxamide]
EC50 [1]: 464 nM
CC50 (cell toxicity CC50): > 25000 nM

Cc1ccc(-c2nn3c(c2C(=O)N[C@H]2N=C(c4ccccc4)c4ccccc4NC2=O)O[C@H](C)CC3)c(C)n1 [Example 57, (5R)-2-(2,6-Dimethyl-3-pyridyl)-5-methyl-N-[(3S)-2-oxo-5-phenyl-1,3-dihydro-1,4-benzodiazepin-3-yl]-6,7-dihydro-5H-pyrazolo[5,1-b][1,3]oxazine-3-carboxamide]
EC50 [1]: 353 nM
CC50 (cell toxicity CC50): > 25000 nM

CS(=O)(=O)CC1COc2c(C(=O)N[C@H]3N=C(c4ccccc4)c4cccc(F)c4NC3=O)c(-c3ccccc3F)nn2C1 (stereo partly drawn) [Example 184, N-[(3S)-9-fluoro-2-oxo-5-phenyl-1,3-dihydro-1,4-benzodiazepin-3-yl]-2-(2-fluorophenyl)-6-(methylsulfonylmethyl)-6,7-dihydro-5H-pyrazolo[5,1-b][1,3]oxazine-3-carboxamide]
EC50 [1]: 300 nM
CC50 (cell toxicity CC50): > 25000 nM

O=C(N[C@H]1N=C(c2ccccc2)c2cccc(F)c2NC1=O)c1c(-c2ccc(F)cc2F)nn2c1S(=O)(=O)CCC2 [Example 32, 2-(2,4-Difluorophenyl)-N-[(3S)-9-fluoro-2-oxo-5-phenyl-2,3-dihydro-1H-1,4-benzodiazepin-3-yl]-4,4-dioxo-5H,6H,7H-4λ^6-pyrazolo[3,2-b][1,3]thiazine-3-carboxamide]
EC50 [1]: 411 nM
CC50 (cell toxicity CC50): > 25000 nM

CCc1ccc(-c2nn3c(c2C(=O)N[C@H]2N=C(c4ccccc4)c4cccc(F)c4NC2=O)OCC2(CC2)C3)cn1 [Example 181, 2-(6-Ethylpyridin-3-yl)-N-[(3S)-9-fluoro-2-oxo-5-phenyl-1,3-dihydro-1,4-benzodiazepin-3-yl]spiro[5,7-dihydropyrazolo[5,1-b][1,3]oxazine-6,1′-cyclopropane]-3-carboxamide]
EC50 [1]: 42 nM
CC50 (cell toxicity CC50): > 25000 nM

CSc1ccc(-c2nn3c(c2C(=O)N[C@H]2N=C(c4ccccc4)c4cccc(F)c4NC2=O)OCCC3)c(F)c1 [Example 193, 2-(2-Fluoro-4-methylsulfanylphenyl)-N-[(3S)-9-fluoro-2-oxo-5-phenyl-1,3-dihydro-1,4-benzodiazepin-3-yl]-6,7-dihydro-5H-pyrazolo[5,1-b][1,3]oxazine-3-carboxamide]
EC50 [1]: 19 nM
CC50 (cell toxicity CC50): > 25000 nM

CCNCC1COc2c(C(=O)N[C@H]3N=C(c4ccccc4)c4cccc(F)c4NC3=O)c(-c3ccccc3F)nn2C1 (stereo partly drawn) [Example 192, 6-(Ethylaminomethyl)-N-[(3S)-9-fluoro-2-oxo-5-phenyl-1,3-dihydro-1,4-benzodiazepin-3-yl]-2-(2-fluorophenyl)-6,7-dihydro-5H-pyrazolo[5,1-b][1,3]oxazine-3-carboxamide]
EC50 [1]: 243 nM
CC50 (cell toxicity CC50): > 24400 nM

[2H]C([2H])([2H])Nc1ccc(-c2nn3c(c2C(=O)N[C@H]2N=C(c4ccccc4)c4cccc(F)c4NC2=O)O[C@H](C)CC3)cn1 [Example 71, (5R)-5-Methyl-N-[(3S)-9-fluoro-2-oxo-5-phenyl-1,3-dihydro-1,4-benzodiazepin-3-yl]-2-[6-(trideuteriomethylamino)pyridin-3-yl]-6,7-dihydro-5H-pyrazolo[5,1-b][1,3]oxazine-3-carboxamide]
EC50 [1]: 91 nM
CC50 (cell toxicity CC50): > 25000 nM

Source: patent publication US12678446B2 (PFIZER INC., priority 2020, dated 2026)
